# Data: doi:10.1101/2024.08.25.609621 (bioRxiv, 2024)
# Values joined by “and” are separate entries in the source; they are usually repeats but may differ in a detail not shown here. Equal values may be shown once. Read-outs that look alike come from different tables or passages of the source.
# What was measured:
# [1] = molecular target: SARS-CoV-2 NSP3 macrodomain (Mac1), P43 crystal form (Severe acute respiratory syndrome coronavirus 2, UniProt P0DTD1); assay type: binding; conditions: for 1-BDC: PanDDA background density correction; for Total number of conformations: ligand conformations modeled in Mac1 crystal structure; for X-ray crystallography: Binding site: site where the ligand is bound in the X-ray crystal structure
# [2] = molecular target: SARS-CoV-2 NSP3 macrodomain (Mac1) (Severe acute respiratory syndrome coronavirus 2, UniProt P0DTD1); experiment: biochemical; assay type: binding; conditions: for SARS CoV-2 macrodomain HTRF assay: Hillslope: dose-response fit
# [3] = TRUE = crystal structure with ligand determined
# [4] = crystal soak concentration 10 mM, event 1
# [5] = crystal soak concentration 10 mM, P43 crystals
# [6] = crystal soak concentration 10 mM
# [7] = crystal soak concentration 20 mM
# [8] = crystal soak concentration 20 mM, event 1
# [9] = crystal soak concentration 20 mM, P43 crystals
# [10] = occupancy estimate from PanDDA 1-BDC
# [11] = site of Mac1 where ligand bound in crystal structure
# [12] = Dose-response, SARS CoV-2 macrodomain HTRF assay
# [13] = Single dose, 200 μM, mean of three technical replicates, read-out: Average % competition
# [14] = preliminary screen, compound at 200 μM, mean of 3-4 technical replicates, read-out: % competition in HTRF assay
# [15] = crystal soak concentration 3 mM, P43 crystals
# [16] = crystal soak concentration 3 mM
# [17] = Single dose, 200 μM, mean of three technical replicates
# [18] = crystal soak, soak concentration 10 mM
# [19] = crystal soak, soak concentration 10 mM, TRUE = ligand hit
# [20] = Single dose, concentration 200 μM, read-out: SARS CoV-2 macrodomain HTRF assay: Average % competition
# [21] = SARS CoV-2 macrodomain HTRF assay, dose-response, read-out: IC50
# [22] = X-ray crystal structure determined (TRUE)
# [23] = site of ligand in X-ray crystal structure
# [24] = crystal soak 10 mM, P43 crystals
Compound,1-BDC [1],"X-ray crystal structure [1, 3]","PanDDA run, DMSO background map: 1-BDC [1, 4]","Pandda run, overall: Hit [1, 5]","Pandda run, overall: Modeled [1, 5]","PanDDA run, DMSO background map: Hit [1, 6]","PanDDA run, DMSO background map: Modeled [1, 6]",Total number of conformations [1],"2*(1-BDC) (%) [1, 10] [%]","Binding site [1, 11]","Hill slope ([2]; HTRF dose-response fit, Mac1)","inhibition at 200 µM [2, 13] [%]","inhibition at 200 µM [2, 14] [%]","PanDDA run, DMSO background map: 1-BDC ([1]; event 1)",further results
OCC(Cc1ccccc1)Nc1ncnc2[nH]ccc12 (stereo not shown) [AVI-313],0.18,TRUE,0.18,TRUE,TRUE,TRUE,TRUE,2,36,Adenosine,1.2,75,75,,"PanDDA run, DMSO background map: Hit [1, 7]: TRUE; PanDDA run, DMSO background map: 1-BDC [1, 8]: 0.25; Pandda run, overall: Hit [1, 9]: TRUE; Pandda run, overall: Modeling comment [1, 9]: Duplicate, not modeled; Hill slope [2, 12]: 1.2"
O=C(Nc1ccsc1C(=O)O)c1ccc2c(c1)OCO2 [AVI-316],0.07,TRUE,0.07,TRUE,TRUE,TRUE,TRUE,1,14,Adenosine,,29,29,,"PanDDA run, DMSO background map: Hit [1, 7]: TRUE; PanDDA run, DMSO background map: 1-BDC [1, 8]: 0.12; Pandda run, overall: Hit [1, 9]: TRUE; Pandda run, overall: Modeling comment [1, 9]: Duplicate, not modeled; IC50 ([2]; Dose-response, SARS CoV-2 macrodomain HTRF assay, read-out: IC50): > 1000 µM"
Cc1sc2ncnc(Sc3ccccc3C(=O)O)c2c1C [AVI-317],0.15,TRUE,0.17 and 0.15,TRUE,TRUE,TRUE,TRUE,2,30,Adenosine,,24,24,0.18,"Pandda run, overall: Modeling comment [1, 5]: Duplicate, not modeled"
CC(CNC(=O)c1ccc2c(c1)CCC(=O)N2)C(=O)O (stereo not shown) [AVI-328],0.11,TRUE,0.11 and 0.1,TRUE,TRUE,TRUE,TRUE,2,22,Adenosine,1.3,50,50,0.25,"Pandda run, overall: Modeling comment [1, 5]: Duplicate, not modeled; Hill slope [2, 12]: 1.3"
Cc1ccc2c(c1)CC[C@@H](C(=O)Nc1nnc3n1CCCC3)O2 [AVI-329],0.07,TRUE,,,,,,1,14,Distal,,,,0.17,"Pandda run, overall: Hit [1, 15]: TRUE; Pandda run, overall: Modeled [1, 15]: TRUE; Pandda run, overall: Modeling comment [1, 15]: Duplicate, not modeled; PanDDA run, DMSO background map: Hit [1, 16]: TRUE; PanDDA run, DMSO background map: Modeled [1, 16]: TRUE; PanDDA run, DMSO background map: 1-BDC ([1]; crystal soak concentration 3 mM, event 1): 0.08 and 0.07; Average % competition [2, 17]: 9%"
CC1CC(C(=O)O)CN(C(=O)CSc2ccc(O)cc2)C1 (stereo not shown) [AVI-334],,,0.07,TRUE,,TRUE,,,,,,,,0.12,"Pandda run, overall: Modeling comment [1, 5]: Weak density, not modeled; Average % competition [2, 17]: 25%"
O=C1CCc2cc(C(=O)N3CC(C(=O)O)CCC34CCCC4)c(F)cc2N1 (stereo not shown) [AVI-338],0.07,TRUE,,,,,,1,,Adenosine,1.5,23,23,,"Occupancy difference (refined_occupancy - 2*(1-BDC)) [1]: 0; Refined ligand occupancy (%) [1]: 14%; PanDDA run, DMSO background map: Hit [1, 7]: TRUE; PanDDA run, DMSO background map: Modeled [1, 7]: TRUE; PanDDA run, DMSO background map: 1-BDC [1, 8]: 0.07; Pandda run, overall: Hit [1, 9]: TRUE; Pandda run, overall: Modeled [1, 9]: TRUE; 2*(1-BDC) (%) ([1]; occupancy estimate from PanDDA BDC): 14%; Hill slope [2, 12]: 1.5"
OC[C@@H]1C[C@H](O)CN1c1ncnc2[nH]ccc12 [AVI-610],0.21,,,,,,,1,42,,1.2,,56,,"Pandda run, overall: Modeled [1, 18]: TRUE; Pandda run, overall: Hit [1, 19]: TRUE; X-ray crystallography: Binding site [1]: Adenosine; PanDDA run, DMSO background map: 1-BDC ([1]; soak concentration 10 mM): 0.34 and 0.31 and 0.21 and 0.26; PanDDA run, DMSO background map: Hit ([1]; soak concentration 10 mM): TRUE; inhibition at 200 µM [2, 20]: 56%; SARS CoV-2 macrodomain HTRF assay: Hillslope [2]: 1.2"
O[C@@H]1COC[C@H]1Nc1ncnc2[nH]ccc12 [AVI-1443],,,,,,,,,,,,,,,"Pandda run, overall: Modeling comment ([1]; crystal soak, soak concentration 5 mM): Weak density, not modeled; Pandda run, overall: Hit ([1]; crystal soak, soak concentration 5 mM, TRUE = ligand hit): TRUE; PanDDA run, DMSO background map: 1-BDC ([1]; soak concentration 5 mM): 0.05 and 0.04; PanDDA run, DMSO background map: Hit ([1]; soak concentration 5 mM): TRUE; IC50 [2, 21]: > 1000 µM"
"O[C@H]1COC[C@@H]1Nc1ncnc2[nH]ccc12 [AVI-1444, (3R,4S)-4-((7H-pyrrolo[2,3-d]pyrimidin-4-yl)amino)tetrahydrofuran-3-ol]",0.08,,,,,,,1,16,,,,,,"X-ray crystal structure [1, 22]: TRUE; Pandda run, overall: Modeled [1, 18]: TRUE; Pandda run, overall: Hit [1, 19]: TRUE; Binding site [1, 23]: Adenosine; PanDDA run, DMSO background map: 1-BDC ([1]; soak concentration 10 mM): 0.08 and 0.11; PanDDA run, DMSO background map: Hit ([1]; soak concentration 10 mM): TRUE; IC50 [2, 21]: > 1000 µM"
OCC(Nc1ncnc2[nH]ccc12)C1CC1 (stereo not shown) [AVI-3651],0.18,,,,,,,1,36,,1.2,,85,,"X-ray crystal structure [1, 22]: TRUE; Pandda run, overall: Hit [1, 24]: TRUE; Pandda run, overall: Modeled [1, 24]: TRUE; PanDDA run, DMSO background map: 1-BDC ([1]; crystal soak 10 mM): 0.18; PanDDA run, DMSO background map: Hit ([1]; crystal soak 10 mM): TRUE; Binding site [1, 23]: Adenosine; Hill slope ([2]; SARS CoV-2 macrodomain HTRF assay, dose-response): 1.2; inhibition at 200 µM ([2]; Single dose, concentration 200 μM, read-out: Average % competition): 85%"
O[C@H]1CC[C@@H]2CCN(c3ncnc4[nH]ccc34)[C@@H]21 [AVI-3664],0.16,,,,,,,1,32,,1.2,,93,,"Pandda run, overall: Hit [1, 24]: TRUE; Pandda run, overall: Modeled [1, 24]: TRUE; PanDDA run, DMSO background map: 1-BDC ([1]; crystal soak 10 mM): 0.16; PanDDA run, DMSO background map: Hit ([1]; crystal soak 10 mM): TRUE; X-ray crystallography: Binding site [1]: Adenosine; inhibition at 200 µM [2, 20]: 93%; SARS CoV-2 macrodomain HTRF assay: Hillslope [2]: 1.2"
CCC(O)[C@H]1CCCN1c1ncnc2[nH]ccc12 (stereo partly shown) [AVI-3666],0.3,,,,,,,1,60,,1.3,,87,,"Pandda run, overall: Hit [1, 24]: TRUE; Pandda run, overall: Modeled [1, 24]: TRUE; PanDDA run, DMSO background map: 1-BDC ([1]; crystal soak 10 mM): 0.3; PanDDA run, DMSO background map: Hit ([1]; crystal soak 10 mM): TRUE; X-ray crystallography: Binding site [1]: Adenosine; inhibition at 200 µM [2, 20]: 87%; IC50 ([2]; confirmatory dose-response, best fit value of 3-4 technical replicates, Fig. S3 prints the 95% confidence interval in brackets, read-out: HTRF IC50): 46 µM; SARS CoV-2 macrodomain HTRF assay: Hillslope [2]: 1.3; Ki ([2]; dose-response, read-out: SARS CoV-2 macrodomain HTRF assay: Ki): 43 µM"
